Here are results for 90 compounds from a melting point compilation (Tetko et al.; mined from patent text by program, amines drawn as free bases though some values may be those of a salt).

What is called melting point is the temperature, or range, at which the solid turns liquid.

For `O=c1[nH]c2ncc(-c3ccc(F)nc3)nc2n1CC1CCOCC1`, the melting point lay in the range of 220 to 222 °C.
In turn, `CCCc1nc(C(C)(C)O)c(C(=O)OCC)n1Cc1ccc(-c2ccccc2C#N)cc1` showed a melting point of 92 to 93 °C.
As for `O=C(C=Cc1ccc(Cl)cc1)C(CC=Cc1ccc(Cl)cc1)c1ccccc1` (stereo not given), the melting point lay in the range of 115 to 118 °C.
As for `CC(C)C[C@H](NC(=O)Nc1cccc2ccccc12)C(=O)N[C@H]1CCOC1=O`, the melting point is 213 to 214 °C.
In turn, `CN1C(=O)C(F)N=C(c2ccccc2F)c2cc(Cl)ccc21` (stereo not given) showed a melting point of 91 to 95 °C.
Turning to `Cc1ccc(S(=O)(=O)N2CCC(NC(=O)Nc3ccc(OC(F)(F)F)cc3)CC2)cc1`, the melting point is 205 to 207 °C.
For `COC1=C(OC)C(=O)C(CCCCCCCCCC(=O)N[C@H](Cc2ccccc2)C(=O)O)=C(C)C1=O` the value was 96 to 98 °C; for `O=C(O)CCCCCC=C(c1ccccc1)c1ccccc1`, 88 to 89 °C.
Regarding `O=[N+]([O-])c1cccc(/C=C/c2csc(C3CCC3)n2)c1`, the melting point was 112 to 115 °C.
The figure for `CCOC(=O)C(C)C(NC(C)=O)C(C(C)=O)C(=O)OC` (stereo not given) is 93 to 96 °C.
The figure for `CC(C)C[C@H](N)[C@@H](O)CCS(=O)(=O)CCc1ccccc1` is 153 to 154 °C; for `Cc1ccc(-c2cncnc2C#N)cc1` it is 107 to 109 °C.
For the compound `Cc1cc(C)c(CP(Cc2c(C)cc(C)cc2C)Cc2c(C)cc(C)cc2C)c(C)c1`, the melting point fell in the range of 148 to 158 °C.
For `CN1CC[C@@H](c2c(O)cc(O)c3c(=O)cc(-c4cccc(F)c4Br)oc23)[C@@H]1CO` the value was 237 to 239 °C; for `CC(=O)NCCc1ccc(NC(=O)C=C2CC(C(=O)OCc3ccccc3)Nc3cc(Cl)cc(Cl)c32)cc1` (racemic), 235 to 238 °C; for `CCc1oc(CCOc2ccc(N)cc2)nc1-c1ccccc1`, 89 to 90 °C.
`O=C(Nc1ccc(C(=O)N2Cc3cccn3Cc3ccccc32)cc1)c1ccc2[nH]ccc2c1` gave a melting point of 130 to 170 °C.
The figure for `COc1ccc(C=CC(=O)O)cc1-c1cc2c(cc1OCc1cccc(O)c1)C(C)(C)CCC2(C)C` is 131 to 133 °C.
Consider `CCCc1cc(F)c(C(=O)O)cc1O`, for which the melting point lay in the range of 134 to 136 °C.
The figure for `Cc1ccc(S(=O)(=O)n2ccc3c(C(=O)c4ccccc4O)cccc32)cc1` is 110 °C; for `CC(=O)c1ccc2c(c1)C1(c3cc(C(C)=O)ccc3-2)c2cc(C(C)=O)ccc2-c2ccc(C(C)=O)cc21` it is above 300 °C.
For `COc1ccc(C2(c3cccc(C(Cc4ccccc4)Cc4ccccc4)n3)OCCCO2)cc1OC` the value was 124 °C.
The figure for `COc1ccc(C(=O)Nc2ccc3ccc(OC)nc3n2)cc1` is 115 °C; for `NC(=O)N1C(=O)C(=C(OCC(=O)C2COCOC2)c2cccs2)c2cc(F)c(Cl)cc21` it is 199 to 200 °C.
In turn, `O=C(c1ccc(-c2ccccc2)cc1)N1Cc2cccnc2Nc2ccccc21` yielded a melting point of 175 to 177 °C.
`COC(=O)N1CCN(c2ccn3nc(-c4ccccc4)c(-c4ccc(=O)n(C(C)C)n4)c3c2)CC1` gave a melting point of 206 to 207 °C.
On to `COc1ccc(-c2csc(Nc3ccc(C)cn3)n2)cc1`, for which the melting point fell in the range of 246 to 248 °C.
`CCCCCCCCOC(=O)C(N)C=CCP(=O)(O)O` (stereo not given): the melting point was 161 to 162 °C.
`O=C(O)COc1ccc2c(-c3ccccc3F)csc2c1Cl` displayed a melting point of 163 to 164 °C.
Compound `O=C1c2ccccc2C(=O)N1CCCOC(Cl)Cl` gave a melting point of 101 to 103 °C.
`O=C(Nc1c(C(O)(C(F)(F)F)C(F)(F)F)ccc2ccccc12)c1cccc([N+](=O)[O-])c1` came in with a melting point of 211 to 212 °C.
As to `CN(C)C=C1CCCc2cc(N3C[C@H](CNC(=O)OC(C)(C)C)OC3=O)ccc2C1=O`, the melting point was in the range of 157 to 160 °C.
In turn, `CC(C(=O)N(C)O)c1ccc(-c2ccccc2)c(F)c1` (stereo not given) yielded a melting point of 125 to 126 °C.
The compound `Cc1noc(NS(=O)(=O)c2ccccc2-c2ccc(-c3cocn3)cc2)c1C` gave a melting point of 85 to 93 °C.
The figure for `Ic1ccc(SSc2ccc(I)cc2)cc1` is 122 to 123 °C; for `Cc1c(F)c(N)cc(Br)c1F` it is 68 to 68.5 °C; for `CC(C)(C)NC(=O)c1ccccc1C(c1ccc(O)cc1)c1ccc(O)cc1` it is 264 to 266 °C.
The figure for `CON=C(C)CCN1C(=O)c2ccccc2C1=O` is 55 to 64 °C.
The figure for `O=C(O)COc1cc2cc(CO)sc2c(Cl)c1Cl` is 188 °C.
Regarding `O=C(Nc1ccccn1)Nc1cccc2c1C1CC(O)CCN1C2=O` (stereo not given), the melting point was found to be 220 °C.
For `C=Cc1ccc(NC(C)=O)nc1` the value was 120 to 121 °C; for `O=C1OC(=O)c2c1ccc1ccc3ccccc3c21`, 245 °C; for `O=Cc1ccc(OCCNc2nc3ccccc3o2)cc1`, 103 to 106 °C.
The figure for `O=c1[nH][nH]c(=O)c2nc3cc(Cl)ccc3cc12` is 353 to 355 °C; for `CC(C)C1C(=O)OC(=O)N1c1ccc(Cl)cc1` (stereo not given) it is 137 to 138 °C; for `COc1nc2cc(Cl)c(Cl)c(C#Cc3ccccc3)c2nc1OC` it is 170 to 172 °C.
For `C[C@H]1CCCN(C(=O)[C@@H]2Cc3ccccc3N2c2ccc3nncn3n2)C1` the value was above 300 °C; for `C=Cn1cc(C(=O)O)c(=O)c2cc(F)c(Cl)cc21`, 210 °C; for `CC(C)Cn1c(CNC(=O)OC(C)(C)C)c(-c2ccccc2)c2cc(CO)ccc2c1=O`, 169 to 170 °C.
In the case of `NCc1ccsc1CC(=O)O`, the melting point was 194 to 195 °C.
The figure for `CCCNc1ccc(C=O)cc1[N+](=O)[O-]` is 73.6 °C; for `Cc1csc(COc2nn3c(-c4ccccc4)nnc3cc2-c2ccccc2)n1` it is 177 °C; for `COc1ccc(C(=O)Nc2ccccc2C(O)c2ccccn2)cc1` (stereo not given) it is 128 °C.
The compound `CNc1nc(Nc2ccc(Cl)c(Cl)c2)ncc1NC(=O)C(C)C` registered a melting point of 284 to 286 °C.
In the case of `Cc1csc(NC(=O)c2nc(C)cc(C#N)c2C)n1`, the melting point is 200 °C.
For `COc1ccc(C(=O)Sc2ccc(C(=O)O)cc2)cc1C(C)(C)C` the value was 220 to 221 °C.
`CC(=O)Oc1ccccc1C(=O)CNc1c(C(=O)O)[nH]c2cc(Cl)ccc12` returned a melting point of 184 to 186 °C.
The figure for `CN(Cc1ccccc1)c1cc(Oc2cccc(C(F)(F)F)c2)nc(C(=O)Nc2ccccc2)c1` is 111 to 114 °C; for `OCCCCCCCCOc1ccc2ccccc2c1` it is 67 to 69 °C; for `Cc1ccc2c(c1)nnn2CNc1ccccc1` it is 149 to 152 °C.
For `O=C=Nc1cc(OCC(F)(F)F)ccc1OCC(F)(F)F` the value was 50 to 52 °C.
The figure for `Cn1cc(C=O)c2ccc3oc4ccccc4c3c21` is 163 to 165 °C.
In turn, `Clc1ccc(-c2cc3nccc(C4CC4)n3n2)cc1` gave a melting point of 137 to 138 °C.
The figure for `Cc1ccc2c(c1)c(=O)c1c(cnn1C)n2CCCNS(C)(=O)=O` is 179 °C.
For the compound `CCCc1c(OCCCOc2ccc(CC(=O)O)cc2)ccc(C(C)=O)c1O`, the melting point lay within 106 to 108 °C.
`CN(C(=O)Cl)c1ccc(C(O)(C(F)(F)F)C(F)(F)F)cc1` came in with a melting point of 152 to 154 °C.
For `COc1ccc(-c2c(Cl)c(CN3C(=O)CCC3=O)nc3sc4c(c23)CCN(C(C)=O)C4)cc1OC` the value was 208 to 210 °C.
In turn, `CCOc1ccc(C=C2N=C(C)OC2=O)cc1OCC` showed a melting point of 117 to 119 °C.
For `CC1(C)CC(CN2CCCNC2=N[N+](=O)[O-])CO1` (stereo not given) the value was 109 to 110 °C; for `O=C(O)C1CCc2[nH]c3cc(Cl)c(Cl)cc3c2C1` (stereo not given), 243 to 244 °C.
With `O[C@@H]1C(Cl)=CCC[C@@H]1O`, the melting point was 111 to 112 °C.
Take `COc1ccc(CS(=O)(=O)CC(=O)O)cc1O`: the melting point was 164 to 165 °C.
On to `CNc1cc(C)cc([N+](=O)[O-])c1N`, for which the melting point amounted to 113 °C.
On to `CC(C)C1(C)N=C(c2nc3occc3cc2C(=O)O)NC1=O` (stereo not given), for which the melting point fell in the range of 237 to 244 °C.
The figure for `O=C(Nc1ccc(N2CCCC2)cc1)N(C[C@H]1CC[C@H](CN(C(=O)Nc2ccc(N3CCCC3)cc2)C2CCCCC2)CC1)C1CCCCC1` is 149 to 152 °C; for `CCCCCCCC(=O)N(CCc1ccc(CCO)cc1)S(=O)(=O)c1ccc(Cl)cc1` it is 55 °C.
For `COc1ccc(S(=O)(=O)N2C(=O)C(N)(c3ccccc3OC)c3cc(Cl)ccc32)c(OC)c1` (stereo not given) the value was 172 to 173 °C.
For `Cc1ncc2cc(-c3c(C)cccc3Cl)c(N)nc2n1` the value was 267 to 271 °C.
`CC(=O)NC[C@H]1CN(c2ccc3c(c2)OCCCC3=O)C(=O)O1`: the melting point was in the range of 123 to 128 °C.
`N#CC1=C(Cl)CN(COC(=O)CNC(=O)CNC(=O)c2ccccc2)C1(c1ccc(Cl)cc1)C(F)(F)F` (stereo not given) yielded a melting point of 65 to 67 °C.
On to `O=C(Cc1c(-c2cccnc2)c2cc(CN3CCN(c4ccccc4)CC3)c(Cl)cc2oc1=O)Nc1ccc(F)cc1C(F)(F)F`, for which the melting point lay within 202 to 205 °C.
For `OCC1OC(n2c(Cl)nc3c(Cl)cc(Cl)cc32)C(O)C1O` (stereo not given) the value was 162 °C; for `O=C(CCCNC(=O)C(=O)c1cn2c3c(cccc13)CCC2)NO`, 95 to 97 °C.
Compound `O=C(Nc1ccc(O)cc1)Nn1cnc2ccccc2c1=O` registered a melting point of 220 to 223 °C.
For `CCCCC1NC(/C=C(\Cc2cccs2)C(=O)O)=CN1Cc1ccc(C(=O)O)c(-c2ccccc2)c1` (stereo not given), the melting point fell in the range of 158 to 161 °C.
`O=C(Nc1ccccc1I)c1ccccc1`: the melting point lay within 147 to 148 °C.
The figure for `CCN(CC)C(=S)Oc1cccnc1F` is 52 to 54 °C; for `CC(C(=O)O)c1ccc2oc(Nc3ccc(Cl)cc3)nc2c1` (stereo not given) it is 206 to 208 °C.
For `O=C(Oc1ccccc1)N1CCC(Sc2ccncc2)CC1` the value was 102 to 104 °C.
With `CC(C)(O)c1ccc(CNC(=O)c2cccnc2Oc2ccc3nonc3c2)cc1`, the melting point was 149 to 151 °C.
